Assay results as given in patent US9034922B2, “Composition for maintaining function of platelets” (THE UNIVERSITY OF TOKYO, priority 2010, dated 2015).

Key:
[1] = target: T1, Matrix metalloproteinase 1 (MMP-1) (Homo sapiens, UniProt P03956); experiment: Enzyme inhibition experiment, MMP-1; assay type: biochemical; settings: 444221 substrate, 37° C., 5 hours
T1 construct: purchased Calbiochem 444208
T1 sequence (P03956 100-469): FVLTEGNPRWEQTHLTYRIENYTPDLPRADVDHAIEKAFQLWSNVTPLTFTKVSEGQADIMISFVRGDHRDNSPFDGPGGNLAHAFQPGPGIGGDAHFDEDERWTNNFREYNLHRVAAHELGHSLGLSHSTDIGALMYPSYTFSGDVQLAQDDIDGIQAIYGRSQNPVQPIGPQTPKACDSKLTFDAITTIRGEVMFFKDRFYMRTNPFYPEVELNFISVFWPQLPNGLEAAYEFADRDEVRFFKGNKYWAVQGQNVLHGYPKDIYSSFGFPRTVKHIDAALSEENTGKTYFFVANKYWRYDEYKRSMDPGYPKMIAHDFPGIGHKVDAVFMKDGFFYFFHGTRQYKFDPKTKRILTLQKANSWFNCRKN
Experimental: (§1) The enzyme reaction was carried out using the enzymes and substrates. Specifically, if necessary, the enzyme was activated in advance with APMA (final concentration 1 mmol/L, p-aminophenylmercuric acetate, manufactured by Sigma-Aldrich Co., A9563) according to information from the manufacturer. Then, in a 96-well plate for fluorescence measurement, 90 μL of an enzyme solution prepared with Assay Buffer A (50 mmol/L Tris-HCl buffer (pH 7.5) containing 200 mmol/L sodium chloride, 5 mmol/L calcium chloride, 10 μmol/L zinc sulfate, and 2 mg/mL bovine serum albumin) was mixed with 90 μL of the substrate adjusted to be 20 μmol/L with Assay Buffer B (50 mmol/L Tris-HCl buffer (pH 7.5) containing 200 mmol/L sodium chloride, 5 mmol/L calcium chloride, 10 μmol/L zinc sulfate, and 0.05% PLURONIC F-68), and incubated for reaction at 25° C. or 37° C. for several hours. Moreover, the fluorescence intensities before and after the reaction were measured using a fluorometer to determine the enzyme activity. An inhibition rate was obtained based on the enzyme activities in the presence and absence of the test substances, and the 50% inhibitory concentration (IC50) was calculated.

[2] = target: T2, Matrix metalloproteinase 2 (MMP-2) (Homo sapiens, UniProt P08253); experiment: Enzyme inhibition experiment, MMP-2; assay type: biochemical; settings: 3163 substrate, 37° C., 5 hours
T2 construct: purchased Calbiochem 444213
T2 sequence (P08253 110-660): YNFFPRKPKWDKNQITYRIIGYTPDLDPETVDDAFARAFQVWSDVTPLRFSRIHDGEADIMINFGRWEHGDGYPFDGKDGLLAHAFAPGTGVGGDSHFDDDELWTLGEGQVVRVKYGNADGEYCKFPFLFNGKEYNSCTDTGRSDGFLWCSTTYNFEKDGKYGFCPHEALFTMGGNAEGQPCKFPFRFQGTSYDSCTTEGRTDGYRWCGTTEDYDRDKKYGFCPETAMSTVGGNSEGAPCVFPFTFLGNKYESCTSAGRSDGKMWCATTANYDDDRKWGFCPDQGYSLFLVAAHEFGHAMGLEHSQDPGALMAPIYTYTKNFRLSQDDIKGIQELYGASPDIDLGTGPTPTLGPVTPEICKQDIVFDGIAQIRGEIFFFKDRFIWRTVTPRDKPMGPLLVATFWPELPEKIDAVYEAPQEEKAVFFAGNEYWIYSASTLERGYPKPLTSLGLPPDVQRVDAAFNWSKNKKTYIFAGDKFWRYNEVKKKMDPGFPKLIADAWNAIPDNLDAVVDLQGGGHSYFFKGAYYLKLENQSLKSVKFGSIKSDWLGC
Experimental: as §1, with “activity.” for “activity. An inhibition rate was obtained based on the enzyme activities in the presence and absence of the test substances, and the 50% inhibitory concentration (IC50) was calculated.”

[3] = target: T3, Matrix metalloproteinase 8 (MMP-8) (Homo sapiens, UniProt P22894); experiment: Enzyme inhibition experiment, MMP-8; assay type: biochemical; settings: 3163 substrate, 37° C., 5 hours
T3 construct: purchased Calbiochem 444229
Experimental: as §1, with “activity.” for “activity. An inhibition rate was obtained based on the enzyme activities in the presence and absence of the test substances, and the 50% inhibitory concentration (IC50) was calculated.”

[4] = target: T4, Matrix metalloproteinase 14 (MMP-14) (Homo sapiens, UniProt P50281); experiment: Enzyme inhibition experiment, MMP-14; assay type: biochemical; settings: 444221 substrate, 37° C., 5 hours
T4 construct: purchased Calbiochem 475935
Experimental: Matrix metalloproteinase 14 (MMP-14) (manufactured by Calbiochem, product number: 475935)
444221 substrate (DNP-Pro-Cha-Gly-Cys(Me)-His-Ala-Lys(Nma)-NH2, custom synthesis): excitation wavelength at 355 nm, emission wavelength at 460 nm
as §1

[5] = target: T5, Matrix metalloproteinase 17 (MMP-17) (Homo sapiens, UniProt Q9ULZ9); experiment: Enzyme inhibition experiment, MMP-17; assay type: biochemical; settings: 3163 substrate, 25° C., 5 hours
T5 construct: purchased Calbiochem 475940
T5 sequence (Q9ULZ9 126-298 limits assumed): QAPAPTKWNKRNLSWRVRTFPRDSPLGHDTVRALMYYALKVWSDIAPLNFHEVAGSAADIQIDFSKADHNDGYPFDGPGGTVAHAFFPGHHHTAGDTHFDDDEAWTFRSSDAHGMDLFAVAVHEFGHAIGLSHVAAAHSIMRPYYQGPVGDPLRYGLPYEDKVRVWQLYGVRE
Experimental: Matrix metalloproteinase 17 (MMP-17) (manufactured by Calbiochem, product number: 475940)
3168 substrate (MOCAc-Arg-Pro-Lys-Pro-Val-Glu-Nva-Trp-Arg-Lys(Dnp)-NH2, manufactured by Peptide Institute, Inc.): excitation wavelength at 320 nm, emission wavelength at 405 nm, and 3163 substrate (MOCAc-Pro-Leu-Gly-Leu-A2pr(Dnp)-Ala-Arg-NH2, manufactured by Peptide Institute, Inc.): excitation wavelength at 320 nm, emission wavelength at 405 nm.
as §1

[6] = test system: human peripheral blood PRP (platelet-rich plasma); experiment: Function-maintaining effect on human peripheral blood PRP (flow cytometry CD41/CD42b); assay type: cell-based; settings: Test Example 12; 37° C., 24 hours or 72 hours; S-45457 50 μM, S-45282 5 μM, p38 inhibitors 40 μM
[7] = test system: ES cell-derived platelets (ADAM17-mediated GPIbα shedding); experiment: Function-maintaining effect on ES cell-derived platelets in culture system (flow cytometry CD41/CD42b, platelet count)
Experimental: As human ES cells (hES cells), a KhES cell line (KhES-3) established by and provided from Institute for Frontier Medical Sciences, Kyoto University was used.
The human ES cells or the human iPS cells were seeded on the feeder cells such that the cell count was 5×10^4 to 1×10^5/10-cm dish. The cells were cultured in Iscove's Modified Dulbecco's Medium (IMDM, manufactured by Invitrogen Corp/GIBCO) supplemented with 15% FBS (product name: CELLect™ GOLD, manufactured by ICN Biomedicals Inc.), 2 mM L-glut amine (manufactured by Invitrogen Corp.), ITS supplement (10 μg/ml insulin, 5.5 mg/ml human transferrin, 5 ng/ml sodium selenite) (manufactured by Sigma-Aldrich Co.), 50 μg/ml ascorbic acid (Sigma-Aldrich Co.), 0.45 mM α-monothioglycerol (MTG, manufactured by Sigma-Aldrich Co.), and 20 ng/ml vascular endothelial growth factor (VEGF, manufactured by R&D Systems, Inc.). Further, this culturing was carried out at 37° C. in 5% CO2 and 21% O2 (atmospheric oxygen) using a CO2 incubator (product name: HERA CELL 150i, manufactured by Thermo Fisher Scientific K. K.). Then, the medium was replaced every 3 days, and the culturing was continued under the conditions until Day 15 when a large number of sac structures (sac-like structures) containing hematopoietic progenitor cells therein were observed.
Next, after detached from the dish, the sac structures were disrupted and suspended in a 3% FBS-containing phosphate buffer solution (PBS). Then, the suspension was passed through a 40-μm cell strainer (manufactured by BD). The solution thus passed through was centrifuged at 440×g for 10 minutes to collect hematopoietic progenitor cells, and the cells was counted. The hematopoietic progenitor cells were seeded on 10T1/2 cells newly prepared in a 6-well plate (6×10^5 cells/plate) exposed to 50-Gy radiation such that the number of the hematopoietic progenitor cells was 2 to 3×10^4/well. The hematopoietic progenitor cells were further cultured for 8 days in IMDM (manufactured by Invitrogen Corp/GIBCO) supplemented with 15% FBS (product name: CELLect™ GOLD, manufactured by ICN Biomedicals Inc.), 2 mM L-glutamine (manufactured by Invitrogen Corp.), ITS supplement (10 μg/ml insulin, 5.5 mg/ml transferrin, 5 ng/ml sodium selenite) (manufactured by Sigma-Aldrich Co.), 50 μg/ml ascorbic acid (manufactured by Sigma-Aldrich Co.), 0.45 mM MTG (manufactured by Sigma-Aldrich Co.), 100 ng/ml human thrombopoietin (human TPO, manufactured by PeproTech, Inc.), 50 ng/ml human stem cell factor (SCF, manufactured by PeproTech, Inc.), and 25 U/ml heparin. Thereby, megakaryocytes/platelets were induced.
Subsequently, the induced megakaryocytes/platelets were collected with an anticoagulant solution (Acid Citrate Dextrose, ACD), followed by centrifugation at 900 rpm for 10 minutes without a break. The supernatant obtained by the centrifugation was further centrifuged at 1500 rpm for 10 minutes without a break to remove the supernatant. Thereafter, the numbers of megakaryocytes and platelets in the precipitate thus obtained were analyzed by flow cytometry using antibodies for staining.
Note that, in the flow cytometry, FACS Aria manufactured by Becton, Dickinson and Company was used. As the antibodies used to stain the megakaryocytes and the platelets, used were a Phycoerythrin (PE)-modified anti-human CD42a (GPIX) antibody, a PE-modified anti-human CD42b (GPIbα) antibody, and an allophycocyanin (APC)-labelled anti-CD41a (integrin αIIbbeta3 complex, HIP8 clone) antibody (manufactured by BD Bioscience). Additionally, in order to accurately measure the absolute numbers of the megakaryocytes and the platelets, the cells were stained with these antibodies, and the analysis was conducted by flow cytometry using TruCount beads (manufactured by BD Bioscience), also.

T3 sequence (P22894 101-467): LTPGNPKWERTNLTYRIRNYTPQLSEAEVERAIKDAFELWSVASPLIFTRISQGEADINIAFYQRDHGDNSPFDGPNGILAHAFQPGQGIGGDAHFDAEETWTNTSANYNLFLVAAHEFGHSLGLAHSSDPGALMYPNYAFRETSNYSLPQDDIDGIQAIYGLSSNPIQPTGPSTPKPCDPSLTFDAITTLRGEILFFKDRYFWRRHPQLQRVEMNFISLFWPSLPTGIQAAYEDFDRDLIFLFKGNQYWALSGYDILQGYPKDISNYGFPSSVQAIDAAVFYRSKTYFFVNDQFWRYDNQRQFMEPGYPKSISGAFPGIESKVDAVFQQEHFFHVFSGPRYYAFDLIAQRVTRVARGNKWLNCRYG

Row | Compound | IC50 [1] | IC50 [2] | IC50 [3] | IC50 [4] | IC50 [5] | function-maintaining effect on human peripheral blood PRP [6] | inhibitory effect on GPIbα shedding compared with 50 μM GM6001 ([7]; Test Example 5, S-45282 at 5 μM) | inhibition of ADAM17-mediated GPIbα shedding (CD42b(+) percentage) ([7]; Test Example 5, added for 2 days or 8 days, GM6001 50 μM, S-45282 5 μM or 50 μM) | number of platelets obtained ([7]; Test Example 5, added for 2 days, 50 μM GM6001, 5 μM S-45282) | inhibition of ADAM17-mediated GPIbα shedding ([7]; Test Example 6, 8 days, S-45457 5 μM or 50 μM, GM6001 50 μM) | toxicity to cells (total number of platelets) ([7]; Test Example 7, ES cells and differentiated cells, 1.5 to 50 μM, 8 days) | concentration dependency of inhibition of GPIbα shedding ([7]; Test Example 7, ES cells, S-45457 1.5 to 50 μM, 8 days)
1 | CC#CCOc1ccc(S(=O)(=O)CC(c2ccc(CN(CC)CC)cc2)N(O)C=O)cc1 (stereo not drawn) [Compound I-1, N-[2-(4-But-2-ynyloxybenzenesulfonyl)-1-(4-diethylaminomethylphenyl)ethyl]-N-hydroxyformamide] | > 100000 nM | 150 nM | 900 nM | 1000 nM | 2800 nM | strong effect of maintaining a function of human peripheral blood PRP | inhibitory effect equivalent to 50 μM GM6001 | inhibit ADAM17-mediated GPIbα shedding | approximately the same |  |  | 
2 | CC#CCOc1ccc(S(=O)(=O)CC(c2ccc(CNS(C)(=O)=O)cc2)N(O)C=O)cc1 (stereo not drawn) [Compound I-4, N-{4-[2-(4-But-2-ynyloxybenzenesulfonyl)-1-(formylhydroxyamino)ethyl]benzyl}methanesulfonamide] | > 100000 nM | 290 nM | 950 nM | 1400 nM | 3400 nM | capable of continuously suppressing ADAM17-mediated GPIbα (CD42b) shedding even incubated for 72 hours |  |  |  | inhibits ADAM17-mediated GPIbα shedding | low toxicity | inhibit ADAM17-mediated GPIbα shedding in a manner dependent on the added concentration
